Experimental data taken from US6898533B1, “Methods for predicting the biological, chemical, and physical properties of molecules from their spectral properties” (The United States of America as represented by the …, priority 2000, dated 2005).
Like-named read-outs stand apart in the source and are kept apart here.

Key:
estrogen receptor [1] = assay: estrogen receptor relative binding affinity, expanded training set of 107 compounds; settings: input class, 107-compound training set
Description: The training set included weak estrogen receptor binders in addition to strong and medium estrogen receptor binders.
For this model, strong estrogen receptor binders were defined as having log(RBA)>−0.25 and weak estrogen receptor binders were defined as having log(RBA)<−3.0. Medium estrogen receptor binders were defined as having log(RBA) in between.

estrogen receptor [2] = settings: 107-compound training set; cited from earlier work
estrogen receptor [3] = assay: estrogen receptor binding class of the 30-compound training set
Description: Two Spectral Data-Activity Relationship (SDAR) models were established, based on ^13C NMR and EI MS spectra, for 30 estrogenic chemicals whose relative binding affinities (RBA) for the alpha (ERα) and beta (ERβ) estrogen receptors are available.
Strong binders to the estrogen receptor were classified as having a log (RBA) over 0.0, and medium binders to the estrogen receptor were classified as having a log (RBA) of less than or equal to 0.0.

[4] = molecular target: beta (ERβ) estrogen receptor (Rattus norvegicus, UniProt Q62986); settings: cited from earlier work
Sequence of beta (ERβ) estrogen receptor (Q62986 whole entry): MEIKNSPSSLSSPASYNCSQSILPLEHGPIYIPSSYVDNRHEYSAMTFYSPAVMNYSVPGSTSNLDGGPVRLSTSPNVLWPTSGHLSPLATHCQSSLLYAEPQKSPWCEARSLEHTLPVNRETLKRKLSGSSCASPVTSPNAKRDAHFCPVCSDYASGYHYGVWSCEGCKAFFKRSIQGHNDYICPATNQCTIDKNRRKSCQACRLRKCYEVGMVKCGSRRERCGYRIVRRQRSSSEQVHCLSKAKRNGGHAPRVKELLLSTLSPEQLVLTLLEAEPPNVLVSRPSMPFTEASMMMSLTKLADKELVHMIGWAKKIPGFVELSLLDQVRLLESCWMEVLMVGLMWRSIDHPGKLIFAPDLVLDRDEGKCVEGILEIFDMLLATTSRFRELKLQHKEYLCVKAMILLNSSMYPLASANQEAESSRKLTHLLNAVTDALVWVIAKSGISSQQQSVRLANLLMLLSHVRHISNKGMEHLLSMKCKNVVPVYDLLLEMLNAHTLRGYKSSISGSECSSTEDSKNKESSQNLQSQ

[5] = molecular target: T1, alpha (ERα) estrogen receptor (Homo sapiens, UniProt P03372); settings: cited from earlier work
T1 sequence (P03372 1-595): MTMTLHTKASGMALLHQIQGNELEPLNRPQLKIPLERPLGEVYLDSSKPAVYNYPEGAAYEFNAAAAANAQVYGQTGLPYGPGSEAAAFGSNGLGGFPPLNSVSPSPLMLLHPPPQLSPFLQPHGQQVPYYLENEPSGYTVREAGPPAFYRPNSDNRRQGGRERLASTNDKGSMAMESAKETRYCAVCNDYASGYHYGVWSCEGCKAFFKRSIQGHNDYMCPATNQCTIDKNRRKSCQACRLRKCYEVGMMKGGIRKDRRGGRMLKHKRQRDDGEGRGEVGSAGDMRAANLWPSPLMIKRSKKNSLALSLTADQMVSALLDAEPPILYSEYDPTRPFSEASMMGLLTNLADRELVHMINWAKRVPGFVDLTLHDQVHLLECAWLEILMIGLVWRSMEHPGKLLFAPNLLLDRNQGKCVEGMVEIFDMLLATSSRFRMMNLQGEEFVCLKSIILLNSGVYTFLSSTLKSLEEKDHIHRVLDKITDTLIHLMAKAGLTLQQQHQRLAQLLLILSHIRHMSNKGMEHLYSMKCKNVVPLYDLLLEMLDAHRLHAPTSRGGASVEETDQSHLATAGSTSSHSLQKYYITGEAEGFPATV

[6] = SDAR training input endpoint class, 30 compounds
[7] = log of relative binding affinity, 17-β-estradiol RBA = 100

**Q.** Which results are given for `C/C=C(/C(=C/C)c1ccc(O)cc1)c1ccc(O)cc1` [Dienestrol]?
**A.** Class (estrogen receptor [1]): S (strong estrogen receptor binders were defined as having log(RBA)>−0.25); log RBA (estrogen receptor [2]): 1.57; Class Input (estrogen receptor [3]; [6]): S (Strong binders to the estrogen receptor were classified as having a log (RBA) over 0.0); Log-(RBA) beta [4, 7]: 2.61; Log-(RBA) alpha [5, 7]: 2.35

**Q.** For `C[C@]12CC[C@H](O)C[C@@H]1CC[C@@H]1[C@@H]2CC[C@]2(C)[C@@H](O)CC[C@@H]12` [3β-Androstanediol, 5α-Androstane-3β,17β-diol], which Class (estrogen receptor [1]) is on record?
**A.** The Class was “M (Medium estrogen receptor binders were defined as having log(RBA) in between)”.

**Q.** And the “log RBA” value (estrogen receptor [2])?
**A.** Its value is −0.92.

**Q.** And the “Class Input” value (estrogen receptor [3])?
**A.** Its value is “S (key: Strong binders to the estrogen receptor were classified as having a log (RBA) over 0.0; M: medium binders to the estrogen receptor were classified as having a log (RBA) of less than or equal to 0.0)”.

**Q.** And the “Log-(RBA) beta” value [4]?
**A.** Its value is 0.85.

**Q.** And the “Log-(RBA) alpha” value [5]?
**A.** The value was 0.48.

**Q.** With `C#C[C@]1(O)CC[C@H]2[C@@H]3CCc4cc(O)ccc4[C@H]3[C@@H](OC)C[C@@]21C` [Moxestrol] as the molecule, how does the Class (estrogen receptor [1]) read?
**A.** The Class was “S (strong estrogen receptor binders were defined as having log(RBA)>−0.25)”.

**Q.** What about the “log RBA” value (estrogen receptor [2]) of the same molecule?
**A.** Its value is 1.14.

**Q.** And the “Class Input” value (estrogen receptor [3]; [6])?
**A.** Its value is “S (Strong binders to the estrogen receptor were classified as having a log (RBA) over 0.0)”.

**Q.** And the “Log-(RBA) beta” value [4, 7]?
**A.** Its value is 0.70.

**Q.** What about the “Log-(RBA) alpha” value [5, 7] of the same molecule?
**A.** The value was 1.63.

**Q.** Which Class (estrogen receptor [1]) does the source give for `CC[C@H](c1ccc(O)cc1)[C@@H](CC)c1ccc(O)cc1` [Hexestrol] here?
**A.** Its Class is “S (strong estrogen receptor binders were defined as having log(RBA)>−0.25)”.

**Q.** And the “log RBA” value (estrogen receptor [2])?
**A.** The value was 2.48.

**Q.** And the “Class Input” value (estrogen receptor [3]; [6])?
**A.** The value was “S (Strong binders to the estrogen receptor were classified as having a log (RBA) over 0.0)”.

**Q.** And the “Log-(RBA) beta” value [4, 7]?
**A.** Its value is 2.37.

**Q.** And the “Log-(RBA) alpha” value [5, 7]?
**A.** The value was 2.48.

**Q.** For `C[C@]12CC[C@@H](O)C[C@@H]1CC[C@@H]1[C@@H]2CC[C@]2(C)[C@@H](O)CC[C@@H]12` [3α-Androstanediol, 5α-Androstane-3α,17β-diol], which Class (estrogen receptor [1]) is on record?
**A.** Its Class is “M (Medium estrogen receptor binders were defined as having log(RBA) in between)”.

**Q.** And the “log RBA” value (estrogen receptor [2])?
**A.** Its value is −2.67.

**Q.** And the “RBA class in words” value (estrogen receptor [3])?
**A.** Its value is “medium”.

**Q.** What about the “Class Input” value (estrogen receptor [3]; [6]) of the same molecule?
**A.** Its value is “M (medium binders to the estrogen receptor were classified as having a log (RBA) of less than or equal to 0.0)”.

**Q.** What about the “Log-(RBA) beta” value [4] of the same molecule?
**A.** Its value is −0.52.

**Q.** And the “Log-(RBA) alpha” value [5]?
**A.** Its value is −1.15.

**Q.** With `CC(C)(c1ccc(O)cc1)c1ccc(O)cc1` [Bisphenol A, 4,4′-isopropylidenediphenol] as the molecule, how does the Class (estrogen receptor [1]) read?
**A.** The Class was “M (Medium estrogen receptor binders were defined as having log(RBA) in between)”.

**Q.** What about the “log RBA” value (estrogen receptor [2]) of the same molecule?
**A.** The value was −2.11.

**Q.** What about the “Class Input” value (estrogen receptor [3]; [6]) of the same molecule?
**A.** The value was “M (medium binders to the estrogen receptor were classified as having a log (RBA) of less than or equal to 0.0)”.

**Q.** What about the “Log-(RBA) beta” value [4, 7] of the same molecule?
**A.** Its value is −0.48.

**Q.** And the “Log-(RBA) alpha” value [5, 7]?
**A.** Its value is −1.30.

**Q.** For `COc1ccc(C(c2ccc(OC)cc2)C(Cl)(Cl)Cl)cc1` [Methoxychlor], which “log RBA” value (estrogen receptor [2]) is on record?
**A.** Its value is −3.2.

**Q.** What about the “Class Input” value (estrogen receptor [3]; [6]) of the same molecule?
**A.** Its value is “M (medium binders to the estrogen receptor were classified as having a log (RBA) of less than or equal to 0.0)”.

**Q.** And the “Log-(RBA) beta” value [4]?
**A.** Its value is −0.89.

**Q.** What about the “Log-(RBA) alpha” value [5] of the same molecule?
**A.** The value was −2.00.

**Q.** With `C[C@]12CC[C@@H]3c4ccc(O)c(O)c4CC[C@H]3[C@@H]1CC[C@@H]2O` [4-OH-Estradiol, 4-hydroxy-estradiol] as the molecule, how does the Class (estrogen receptor [1]) read?
**A.** The Class was “S (strong estrogen receptor binders were defined as having log(RBA)>−0.25)”.

**Q.** What about the “Class Input” value (estrogen receptor [3]; [6]) of the same molecule?
**A.** The value was “S (Strong binders to the estrogen receptor were classified as having a log (RBA) over 0.0)”.

**Q.** And the “Log-(RBA) beta” value [4, 7]?
**A.** The value was 0.85.

**Q.** And the “Log-(RBA) alpha” value [5, 7]?
**A.** The value was 1.11.
